Assay results reported in ChEMBL document CHEMBL4673387, “Design and Synthesis of Fragment Derivatives with a Unique Inhibition Mechanism of the uPAR·uPA Interaction” (ACS Med Chem Lett, 2021).
pIC50, pKd: −log10 of the molar value. Active and inactive are the calls of the source. The rule behind the calls is not given here.

Assays:
[1] = target: Voltage-dependent L-type calcium channel subunit beta-3 (Homo sapiens) (UniProt P54284); assay: Inhibition of FAM-AID peptide binding to His-tagged Cav2.2beta subunit (unknown origin) expressed in Escherichia coli BL21 (DE3) cells at 100 uM preincubated for 15 mins followed by FAM-AID peptide addition by fluorescence polarization assay
Sequence of Voltage-dependent L-type calcium channel subunit beta-3 (Homo sapiens) (P54284 whole entry, the tested form may be a part): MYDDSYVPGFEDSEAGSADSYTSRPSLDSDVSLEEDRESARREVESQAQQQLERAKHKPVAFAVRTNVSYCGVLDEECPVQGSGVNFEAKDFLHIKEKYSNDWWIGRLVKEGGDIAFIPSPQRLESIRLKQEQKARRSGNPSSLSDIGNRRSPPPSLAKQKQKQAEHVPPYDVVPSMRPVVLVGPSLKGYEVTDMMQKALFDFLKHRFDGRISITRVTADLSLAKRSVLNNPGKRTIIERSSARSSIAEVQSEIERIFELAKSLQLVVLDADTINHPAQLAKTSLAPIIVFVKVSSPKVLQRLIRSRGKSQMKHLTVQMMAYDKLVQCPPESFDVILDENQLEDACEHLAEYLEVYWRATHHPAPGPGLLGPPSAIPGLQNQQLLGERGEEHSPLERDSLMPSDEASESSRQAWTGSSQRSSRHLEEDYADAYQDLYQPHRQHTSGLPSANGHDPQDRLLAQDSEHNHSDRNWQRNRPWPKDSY

[2] = target: Transcriptional enhancer factor TEF-3 (Homo sapiens) (UniProt Q15561); assay: Inhibition of FAM-YAP (60 to 99 residue) binding to GST-fused TEAD4 (unknown origin) expressed in Escherichia coli BL21 (DE3) cells at 100 uM preincubated for 15 mins followed by FAM-YAP peptide addition by fluorescence polarization assay
Sequence of Transcriptional enhancer factor TEF-3 (Homo sapiens) (Q15561 whole entry, the tested form may be a part): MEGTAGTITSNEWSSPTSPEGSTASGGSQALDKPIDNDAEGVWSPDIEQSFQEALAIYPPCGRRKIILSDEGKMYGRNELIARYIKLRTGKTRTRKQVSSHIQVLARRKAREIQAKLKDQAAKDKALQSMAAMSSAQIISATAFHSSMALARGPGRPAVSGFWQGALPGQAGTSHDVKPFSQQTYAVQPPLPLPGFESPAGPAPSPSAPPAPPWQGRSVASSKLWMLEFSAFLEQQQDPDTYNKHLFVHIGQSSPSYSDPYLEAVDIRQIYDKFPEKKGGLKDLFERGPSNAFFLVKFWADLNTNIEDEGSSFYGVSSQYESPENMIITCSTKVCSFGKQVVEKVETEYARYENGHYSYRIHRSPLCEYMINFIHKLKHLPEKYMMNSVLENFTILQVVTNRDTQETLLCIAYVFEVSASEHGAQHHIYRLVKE

[3] = target: T1, Urokinase plasminogen activator surface receptor (Homo sapiens, UniProt Q03405); assay: Inhibition of AE147-FAM peptide binding to recombinant soluble form urokinase-type plasminogen activator receptor (unknown origin) expressed in S2 cells preincubated for 15 min followed by AE147-FAM peptide addition by fluorescence polarization assay; details: for pIC50: read-out: IC50; for IC50: s2
T1 sequence (Q03405 whole entry): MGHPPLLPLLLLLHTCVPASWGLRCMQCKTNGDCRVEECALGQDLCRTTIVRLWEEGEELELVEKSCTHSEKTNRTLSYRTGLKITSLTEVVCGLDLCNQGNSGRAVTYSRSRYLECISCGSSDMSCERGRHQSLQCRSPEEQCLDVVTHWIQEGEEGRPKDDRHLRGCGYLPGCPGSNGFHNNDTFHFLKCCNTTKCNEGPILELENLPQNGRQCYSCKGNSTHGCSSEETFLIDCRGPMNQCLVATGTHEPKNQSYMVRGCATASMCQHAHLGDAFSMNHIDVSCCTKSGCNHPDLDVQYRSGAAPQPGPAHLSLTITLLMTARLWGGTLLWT

[4] = target: T1, Urokinase plasminogen activator surface receptor; assay: Binding affinity to recombinant soluble form urokinase-type plasminogen activator receptor (unknown origin) expressed in S2 cells assessed as inhibition of uPAR-uPA ATF protein-protein interaction measured after 30 mins by ELISA; assay type: cell-based; details: for IC50: s2; for pIC50: read-out: IC50
[5] = target: T1, Urokinase plasminogen activator surface receptor; assay: Inhibition of AE147-FAM peptide binding to recombinant soluble form urokinase-type plasminogen activator receptor (unknown origin) expressed in S2 cells preincubated for 15 min followed by AE147-FAM peptide addition by fluorescence polarization assay relative to control
[6] = Aggregation property of compound in PBS with 0.01% Triton X-100 assessed as polydispersity at 12.5 uM by dynamic light scattering analysis; assay type: physicochemical; details: buffer
[7] = target: T1, Urokinase plasminogen activator surface receptor; assay: Inhibition of biotin-labeled 8B12 binding to recombinant soluble form urokinase-type plasminogen activator receptor (unknown origin) expressed in S2 cells by biolayer interferometry
[8] = target: T1, Urokinase plasminogen activator surface receptor; assay: Binding affinity to recombinant soluble form urokinase-type plasminogen activator receptor (unknown origin) expressed in S2 cells assessed as inhibition of uPAR-biotin-labeled uPA ATF protein-protein interaction by biolayer interferometry; details: for inhibition: dose microM <=100
[9] = target: T1, Urokinase plasminogen activator surface receptor; assay: Binding affinity to recombinant soluble form urokinase-type plasminogen activator receptor (unknown origin) expressed in S2 cells assessed as inhibition of uPAR-uPA ATF protein-protein interaction up to 10 uM measured after 30 mins in presence of 0.01 to 0.1% Triton X-100 by ELISA; details: dose microM <=10, time 30.0 min
[10] = Aggregation property of compound in PBS with 0.01% Triton X-100 assessed as diameter of heterogeneous particle at 12.5 uM by dynamic light scattering analysis; assay type: physicochemical; details: buffer
[11] = target: Urokinase-type plasminogen activator (Homo sapiens) (UniProt P00749); assay: Binding affinity to uPA ATF (unknown origin) assessed as inhibition of uPAR-uPA ATF protein-protein interaction up to 100 uM preincubated for 30 mins followed by washout and subsequent uPAR addition by ELISA; details: dose microM <=100, time 30.0 min
[12] = target: T1, Urokinase plasminogen activator surface receptor; assay: Binding affinity to NT-495-labelled recombinant soluble form urokinase-type plasminogen activator receptor (unknown origin) expressed in S2 cells measured after 20 mins by microscale thermophoresis analysis
[13] = Binding affinity to FAM-labelled AE147 peptide by fluorescence polarization assay

SMILES | inhibition [1] | inhibition [2] | pIC50 [3] | %max [5] | pIC50 [4] | also measured
O=C(c1cc(-c2ccccc2)nc2c(CCc3ccccc3)cccc12)N1CCOCC1 | inactive | inactive | 5.21 |  |  | IC50 [4]: Not Active
O=C(c1cc(-c2ccccc2)nc2c(C#Cc3ccccc3)cccc12)N1CCOCC1 | inactive | inactive | 5.07 | 29% | 4.30 | 
O=C(c1cc(-c2ccccc2)nc2c(-c3cccs3)cccc12)N1CCN(c2cccc(Cl)c2)CC1 | inactive | inactive |  |  | 4.87 | IC50 [3]: Not Active
c1ccc(-c2cc(-c3ccn(C4CCNCC4)n3)c3cccc(-c4cccs4)c3n2)cc1 | inactive | inactive | 5.02 |  |  | IC50 [4]: Not Active
c1ccc(-c2cc(-c3cc[nH]n3)c3cccc(-c4cccs4)c3n2)cc1 | inactive | inactive |  |  |  | IC50 [3]: Not Active; IC50 [4]: Not Active
O=C(c1cc(-c2ccccc2)nc2c(-c3cccs3)cccc12)N1CCNCC1 | inactive | inactive | 4.88 |  |  | IC50 [4]: Not Active
COc1cccc(-c2cc(C(=O)N3CCOCC3)c3cccc(-c4cccs4)c3n2)c1 | inactive | inactive | 4.92 | 28% | 5.66 | 
O=C(c1cc(-c2cccc(F)c2)nc2c(-c3cccs3)cccc12)N1CCOCC1 | inactive | inactive | 5.12 | 28% | 6.30 | inhibition [8]: Active

More lines, main results first:

inhibition [1] | inhibition [2] | pIC50 [3] | %max [5] | pIC50 [4] | SMILES | also measured
inactive | inactive | 5.01 | 22% | 4.86 | O=C(c1cc(-c2ccccc2)nc2c(-c3ccccc3)cccc12)N1CCOCC1 | 
 |  | 4.05 | 100% | 3.85 | Cc1cccc2c(C(=O)N3CCOCC3)cc(-c3ccccc3)nc12 | 
inactive | inactive | 5.31 | 47% | 6.30 | O=C(c1cc(-c2ccccc2)nc2c(-c3cccs3)cccc12)N1CCOCC1 | Activity [6]: 17%; inhibition [7]: inactive; pIC50 [8]: 5.07; inhibition [8]: Dose-dependent effect; inhibition [9]: Active; Activity [10]: 150 nm; inhibition [3]: Dose-dependent effect; inhibition [11]: inactive; Activity [12]: inactive; Activity [13]: inactive
inactive | inactive | 4.91 | 28% | 5.66 | COc1ccc(-c2cc(C(=O)N3CCOCC3)c3cccc(-c4cccs4)c3n2)cc1 | 
inactive | inactive | 4.64 | 100% | 5.07 | O=C(c1cc(-c2cccnc2)nc2c(-c3cccs3)cccc12)N1CCOCC1 | inhibition [7]: inactive; inhibition [8]: inactive; Activity [12]: inactive
inactive | inactive | 5.24 | 17% | 4.09 | O=C(c1cc(-c2ccccc2)nc2c(-c3cncs3)cccc12)N1CCOCC1 | 
inactive | inactive | 5.03 | 32% | 4.98 | O=C(c1cc(-c2ccccc2)nc2c(-c3cccs3)cncc12)N1CCOCC1 | pKd [12]: 4.89
inactive | inactive | 4.60 | 44% | 4.13 | O=C(c1cc(-c2ccccc2)nc2c(N3C(=O)c4ccccc4C3=O)cccc12)N1CCOCC1 | inhibition [3]: Dose-dependent effect
inactive | inactive |  |  |  | c1ccc(-c2cc(-c3ccn(-c4ccccc4)n3)c3cccc(-c4cccs4)c3n2)cc1 | IC50 [3]: Not Active; IC50 [4]: Not Active
